Results from patent US20100280358A1, “SINGLE BREATH-HOLD SYSTEM AND METHOD FOR DETECTION AND ASSESSMENT OF MULTI-ORGAN PHYSIOLOGIC, MORPHOLOGIC AND STRUCTURAL CHANGES” (University of Virginia Patent Foundation, priority 2009, published 2010).

Experiments:
[1] = test system: rabbit model of stereotactic lung radiosurgery; assay: SB-CSI with hp Xe-129 in a rabbit model of stereotactic lung radiosurgery with and without a radioprotector; assay type: in vivo, New Zealand rabbits; details: for mean difference between the lungs (SB-CSI maps, mean±SD): right lower lobe 3 x 11 Gy, 50 mg/Kg I.V. 20 minutes before each radiation dose, baseline 3.2%±3.5%
Description: In order to study the efficacy of this technique for detecting changes in lung physiology and morphology, it was applied to a rabbit model of stereotactic lung radiosurgery with and without a radioprotector. The lower lobes of the right lung of nine New Zealand rabbits were irradiated with 3 doses of 11 Gy each (FIGS. 2A, 2B) using a TomoTherapy Hi-Art scanner. The healthy left lung was spared from radiation, so it could be used as a control and also would improve the animal's quality of life. Six of these nine animals received 50 mg/Kg of the radioprotector Amifostine, through an I.V., 20 minutes before each radiation dose. SB-CSI was performed using a 1.5-Tesla clinical MR scanner at baseline, and at 4 and 8 weeks post-radiation treatment. For correlation with the SB-CSI results, each animal was also scanned at the same time points (in the same MR scanner) using a 3D contrast-enhanced MRA sequence (ce-MRA), with 3 cc of a gadolinium chelate (FIGS. 2E, 2F). Within a week of the Xe-129 scan, a hyperpolarized Helium-3 (hp He-3) ventilation scan (FIGS. 2G, 2H) was obtained using the same inhalation and breath-hold technique as those for Xe-129, and a computed tomography (CT) scan was also obtained with a resolution of 0.5×0.5×1.5 mm^3 (FIGS. 2C, 2D).
SB-CSI maps based on the integrals of each individual peak were calculated separately for each animal and for each time point. At baseline the mean differences between the lungs were statistically identical for both groups, with 1.3%±1.0% (mean±SD) for the control group (radiosurgery only) and 3.2%±3.5% for the group that received radiosurgery and the radioprotector. At 4 weeks post radiosurgery, the mean differences between the lungs were 6.2%±2.3% and 4.6%±3.2% for the control and radioprotector groups, respectively. At 8 weeks post, the mean difference between the lungs increased to 16.7%±3.2% for the control group, while for the animals that received the radioprotector the value remained identical to baseline, at 3.4%±2.6%. […]

[2] = test system: rabbit model of lung fibrosis; assay: hyperpolarized Xe-129 2D/3D-CSI in a rabbit model of lung fibrosis (endotracheal bleomycin); assay type: in vivo, New Zealand White rabbits; details: after endotracheal instillation, scans at 2, 4 and 7 weeks
Description: Three New Zealand White rabbits underwent hyperpolarized Xe-129 2D or 3D-CSI one four different days: one before and 2, 4 and 7 weeks after the endotracheal instillation of bleomycin which induces lung fibrosis, or after the endotracheal instillation of porcine elastase which initially induces lung inflammation but later induces emphysema, and one control animal with no intervention. All scans were done in a 1.5 Tesla clinical system (Avanto, Siemens Medical Solutions) using a transmitter/receiver birdcage RF coil (IGC Medical Advances, Milwaukee, Wis.) tuned to the Xe-129 frequency. Isotopically enriched (˜87%) Xe-129 was polarized to ˜35% using a commercial prototype polarizer (Xemed LLC, NH). For each 2D or 3D acquisition, a single 40-cc volume was administered to the animal, and respiration was suspended for the acquisition (˜6-18s). […]
Quantification of the maps for the animal in the fibrosis model group show an increase in the tissue/gas and RBC/gas ratios following the instillation of bleomycin, but only the tissue/gas remained elevated, as expected in fibrosis (FIG. 5).
This Xe-129 dissolved-phase peak is not well resolved in normal rabbits and it was not seen in our control animal. […] Subsequently, each separate peak in the spectrum was quantified using a Principal Component Analysis (PCA) method (33)

Molecule	early treatment toxicity (radiation-induced pulmonary injury) detected by SB-CSI ([1]; 4 and 8 weeks post treatment, versus radiation only)	mean difference between the lungs (SB-CSI maps, mean±SD) ([1]; 4 weeks post radiosurgery, control group 6.2%±2.3%)	mean difference between the lungs (SB-CSI maps, mean±SD) ([1]; 8 weeks post radiosurgery, control group 16.7%±3.2%)	RBC/gas ratio (Xe-129 CSI maps) ([2]; did not remain elevated (FIG. 5))	tissue/gas ratio (Xe-129 CSI maps) ([2]; remained elevated (FIG. 5))
NCCCNCCSP(=O)(O)O [radioprotector, Amifostine]	reduced early treatment toxicity	4.6%±3.2%	3.4%±2.6%	–	–
bleomycin	–	–	–	increase	increase
